{
  "source": "ChEMBL document CHEMBL4334461",
  "about": "“Taicrypnacids A and B, a Pair of C37 Heterodimeric Diterpenoid Stereoisomers from Taiwania cryptomerioides” (J Nat Prod, 2019)",
  "key": {"MCF7 [1]": {"system": "MCF7", "experiment": "Cytotoxicity against human MCF7 cells measured after 24 hrs by MTT assay", "assay_type": "functional, cell-based", "details": "MCF7, 24 h"}, "U2OS": {"system": "U2OS", "experiment": "Cytotoxicity against human U2OS cells measured after 24 hrs by MTT assay", "assay_type": "functional, cell-based"}, "HCT-116": {"system": "HCT-116", "experiment": "Cytotoxicity against human HCT116 cells measured after 24 hrs by MTT assay", "assay_type": "functional, cell-based", "details": "HCT-116, 24 h"}, "MCF-10A": {"system": "MCF-10A", "experiment": "Cytotoxicity against human MCF10A cells at 3.125 to 50 uM measured after 24 hrs by MTT assay", "assay_type": "cell-based"}, "MCF7 [2]": {"system": "MCF7", "experiment": "Induction of morphological changes in human MCF7 cells assessed as change in vacuole at 5 to 20 uM measured after 24 hrs by optical microscopy analysis", "assay_type": "functional, cell-based"}, "MCF7 [3]": {"system": "MCF7", "experiment": "Induction of cell death in human MCF7 cells assessed as increase in intracellular calcium measured after 24 hrs by Fluo-4/AM probe based confocal microscopic analysis", "assay_type": "functional"}, "MCF7 [4]": {"system": "MCF7", "experiment": "Induction of cell death in human MCF7 cells assessed as increase in ROS level measured after 24 hrs by DCFHDA probe based flow cytometry", "assay_type": "functional"}, "MCF7 [5]": {"system": "MCF7", "experiment": "Induction of endoplasmic reticulum vacuolation in human MCF7 cells assessed as increase in vacuole formation at 5 to 20 uM measured after 24 hrs by ER-tracker and Hoechst 33342 staining based confocal microscopy", "assay_type": "functional, cell-based"}, "MCF7 [6]": {"system": "MCF7", "experiment": "Induction of mitochondrial morphological changes in human MCF7 cells assessed as dilation of mitochondria at 5 to 20 uM measured after 24 hrs by Mito-tracker and Hoechst 33342 staining based confocal microscopy", "assay_type": "functional, cell-based"}, "MCF7 [7]": {"system": "MCF7", "experiment": "Induction of mitochondria-mediated apoptosis in human MCF7 cells", "assay_type": "functional, cell-based"}, "MCF7 [8]": {"system": "MCF7", "experiment": "Induction of apoptosis in human MCF7 cells assessed as activation of cleaved caspase-3", "assay_type": "functional, cell-based"}, "MCF7 [9]": {"system": "MCF7", "experiment": "Induction of apoptosis in human MCF7 cells assessed as activation of cleaved caspase-7", "assay_type": "functional, cell-based"}, "MCF7 [10]": {"system": "MCF7", "experiment": "Induction of apoptosis in human MCF7 cells assessed as activation of cleaved caspase-9", "assay_type": "functional, cell-based"}, "MCF7 [11]": {"system": "MCF7", "experiment": "Induction of apoptosis in human MCF7 cells assessed as activation of cleaved PARP", "assay_type": "functional, cell-based"}, "MCF7 [12]": {"system": "MCF7", "experiment": "Induction of endoplasmic reticular stress in human MCF7 cells assessed as upregulation of GRP78 by Western blot analysis", "assay_type": "functional, cell-based"}, "MCF7 [13]": {"system": "MCF7", "experiment": "Induction of endoplasmic reticular stress in human MCF7 cells assessed as upregulation of IRE1a by Western blot analysis", "assay_type": "functional, cell-based"}, "MCF7 [14]": {"system": "MCF7", "experiment": "Induction of endoplasmic reticular stress in human MCF7 cells assessed as upregulation of XBP1s by Western blot analysis", "assay_type": "functional, cell-based"}, "MCF7 [15]": {"system": "MCF7", "experiment": "Induction of endoplasmic reticular stress in human MCF7 cells assessed as upregulation of CHOP by Western blot analysis", "assay_type": "functional, cell-based"}, "MCF7 [16]": {"system": "MCF7", "experiment": "Induction of ROS-mediated autophagy in human MCF7 cells assessed as increase in autophagosome numbers", "assay_type": "functional, cell-based"}, "MCF7 [17]": {"system": "MCF7", "experiment": "Induction of ROS-mediated autophagy in human MCF7 cells assessed as increase in LC3-2/LC3-1 ratio", "assay_type": "functional, cell-based"}, "MCF7 [18]": {"system": "MCF7", "experiment": "Induction of ROS-mediated autophagy in human MCF7 cells assessed as downregulation of p62", "assay_type": "functional, cell-based"}},
  "note": "Activity calls are given as the source filed them. The calls are words filed in the database; no cut-off is given here.",
  "data": [
    {"compound": "C=C1CC[C@@H]2[C@](C)(CCC[C@@]2(C)C(=O)OC)[C@H]1C/C=C(\\C)[C@@H]1C[C@@H]2C[C@H]3C(C)(C)CCC[C@]3(C)c3ccc(O)c(c32)O1", "values": [
      {"measurement": "IC50", "setting": "MCF7 [1]", "value": "> 50", "unit": "µM"},
      {"measurement": "IC50", "setting": "U2OS", "value": "> 50", "unit": "µM"},
      {"measurement": "IC50", "setting": "HCT-116", "value": "> 50", "unit": "µM"}
    ]},
    {"compound": "C=C1CC[C@@H]2[C@](C)(CCC[C@@]2(C)C(=O)O)[C@H]1C/C=C(\\C)[C@@H]1C[C@@H]2C[C@H]3C(C)(C)CCC[C@]3(C)c3ccc(O)c(c32)O1", "values": [
      {"measurement": "IC50", "setting": "MCF7 [1]", "value": 7.4, "unit": "µM"},
      {"measurement": "IC50", "setting": "U2OS", "value": 8.4, "unit": "µM"},
      {"measurement": "IC50", "setting": "HCT-116", "value": 7.5, "unit": "µM"},
      {"measurement": "Activity", "setting": "MCF-10A", "value": "Toxic"},
      {"measurement": "Activity", "setting": "MCF7 [2]", "value": "Active"},
      {"measurement": "Activity", "setting": "MCF7 [3]", "value": "Dose-dependent effect"},
      {"measurement": "Activity", "setting": "MCF7 [4]", "value": "Dose-dependent effect"},
      {"measurement": "Activity", "setting": "MCF7 [5]", "value": "Active"},
      {"measurement": "Activity", "setting": "MCF7 [6]", "value": "Active"},
      {"measurement": "Activity", "setting": "MCF7 [7]", "value": "Active"},
      {"measurement": "Activity", "setting": "MCF7 [8]", "value": "Active"},
      {"measurement": "Activity", "setting": "MCF7 [9]", "value": "Active"},
      {"measurement": "Activity", "setting": "MCF7 [10]", "value": "Active"},
      {"measurement": "Activity", "setting": "MCF7 [11]", "value": "Active"},
      {"measurement": "Activity", "setting": "MCF7 [12]", "value": "Active"},
      {"measurement": "Activity", "setting": "MCF7 [13]", "value": "Active"},
      {"measurement": "Activity", "setting": "MCF7 [14]", "value": "Active"},
      {"measurement": "Activity", "setting": "MCF7 [15]", "value": "Active"},
      {"measurement": "Activity", "setting": "MCF7 [16]", "value": "Active"},
      {"measurement": "Activity", "setting": "MCF7 [17]", "value": "Active"},
      {"measurement": "Activity", "setting": "MCF7 [18]", "value": "Active"}
    ]},
    {"compound": "C=C1CC[C@@H]2[C@](C)(CCC[C@@]2(C)C(=O)O)[C@H]1C/C=C(\\C)[C@H]1C[C@H]2C[C@H]3C(C)(C)CCC[C@]3(C)c3ccc(O)c(c32)O1", "values": [
      {"measurement": "IC50", "setting": "MCF7 [1]", "value": 9.9, "unit": "µM"},
      {"measurement": "IC50", "setting": "U2OS", "value": 9.7, "unit": "µM"},
      {"measurement": "IC50", "setting": "HCT-116", "value": 7.8, "unit": "µM"}
    ]}
  ]
}
